The test system of series [1] is ACHN cells. Nature of the series: NCI-60 panel antiproliferation, ACHN. The settings on record: Homo sapiens, NCI 60-cell panel. The format is cell-based, human. The method, then:
(§1) Bifidenone and Compound 37 were tested for antiproliferation activity against the NCI-60 panel of cancer cell lines. COMPARE analysis was then conducted to compare the activity “fingerprint” of bifidenone to those of known classes of compounds (Zhou, B.-N., Hoch, J. M., Johnson, R. K., Mattern, M. R., Eng, W.-K., Ma, J., Hecht, S. M., Newman, D. J., Kingston, D. G. I., 2000. Use of COMPARE Analysis to Discover New Natural Product Drugs: Isolation of Camptothecin and 9-Methoxycamptothecin from a New Source. Journal of Natural Products 63, 1273-1276.).

A further series relates to IGR-OV1 cells. Briefly: NCI-60 panel antiproliferation, IGR-OV1. Type of series: cell-based, human. The settings on record: Homo sapiens, IGROV-1, NCI 60-cell panel. The method, then:
as §1

The subject of series [2] is UO-31 cells. Briefly: NCI-60 panel antiproliferation, UO-31. The format is cell-based, human. The settings on record: Homo sapiens, NCI 60-cell panel. As for the experimental part: as §1
Another series deals with RXF-393 cells. Nature of the series: NCI-60 panel antiproliferation, RXF-393. Type of series: cell-based, human. The settings on record: Homo sapiens, NCI 60-cell panel. The method, then: as §1
For a further series, the system named is UACC-62 cells. Nature of the series: NCI-60 panel antiproliferation, UACC-62. Type of series: cell-based, human. The settings on record: Homo sapiens, NCI 60-cell panel. As for the experimental part: as §1
For another series, the system named is MDA-MB-468 cells. Nature of the series: NCI-60 panel antiproliferation, MDA-MB-468. Type of series: cell-based, human. The settings on record: Homo sapiens, NCI 60-cell panel. As for the experimental part:
as §1

For the next series, the system named is SK-Mel-5 cells. Briefly: NCI-60 panel antiproliferation, SK-MEL-5. Type of series: cell-based, human. The settings on record: Homo sapiens, NCI 60-cell panel. As for the experimental part: as §1
The next series deals with 786-0 cells. Nature of the series: NCI-60 panel antiproliferation, 786-0. The format is cell-based, human. The settings on record: Homo sapiens, NCI 60-cell panel. As for the experimental part: as §1
The next series deals with HOP-62 cells. Briefly: NCI-60 panel antiproliferation, HOP-62. Type of series: cell-based, human. The settings on record: Homo sapiens, NCI 60-cell panel. The method, then: as §1
The test system of another series is DU-145 cells. Nature of the series: NCI-60 panel antiproliferation, DU-145. The settings on record: Homo sapiens, NCI 60-cell panel. The format is cell-based, human. As for the experimental part: as §1
The test system of the next series is U251 cells. Nature of the series: NCI-60 panel antiproliferation, U251. Type of series: cell-based, human. The settings on record: Homo sapiens, U-251, NCI 60-cell panel. As for the experimental part: as §1
Series [3] has as its system OVCAR-3 cells. Nature of the series: NCI-60 panel antiproliferation, OVCAR-3. Type of series: cell-based, human. The settings on record: Homo sapiens, NCI 60-cell panel. As for the experimental part: as §1
The test system of a further series is UACC-257 cells. Briefly: NCI-60 panel antiproliferation, UACC-257. The format is cell-based, human. The settings on record: Homo sapiens, NCI 60-cell panel. The method, then:
as §1

The test system of another series is SW-620 cells. Nature of the series: NCI-60 panel antiproliferation, SW-620. The format is cell-based, human. The settings on record: Homo sapiens, NCI 60-cell panel. As for the experimental part: as §1
The next series relates to HOP-92 cells. Briefly: NCI-60 panel antiproliferation, HOP-92. The settings on record: Homo sapiens, NCI 60-cell panel. The format is cell-based, human. As for the experimental part: as §1
In a further series the test system is OVCAR-8 cells. Briefly: NCI-60 panel antiproliferation, OVCAR-8. Type of series: cell-based, human. The settings on record: Homo sapiens, NCI 60-cell panel. As for the experimental part:
as §1

In the next series the test system is Hs578T cells. Nature of the series: NCI-60 panel antiproliferation, Hs578T. The format is cell-based, human. The settings on record: Homo sapiens, Hs-578T, NCI 60-cell panel. As for the experimental part:
as §1

The subject of the next series is HCC-2998 cells. Briefly: NCI-60 panel antiproliferation, HCC-2998. The format is cell-based, human. The settings on record: Homo sapiens, NCI 60-cell panel. The method, then: as §1
A further series relates to MALME-3M cells. Nature of the series: NCI-60 panel antiproliferation, MALME-3M. The settings on record: Homo sapiens, NCI 60-cell panel. Type of series: cell-based, human. As for the experimental part: as §1
The next series has as its system MES-SA/Dx5 cells. Nature of the series: antiproliferation assay, MES-SA/Dx5. The settings on record: Homo sapiens. The format is cell-based. As for the experimental part:
(§2) For the antiproliferation assay, NCI-H460 (large cell lung carcinoma) or M14 (amelanotic melanoma) cells were grown in RPMI-1640 with 10% FBS supplemented with L-glutamine and HEPES. Cells were seeded into 96-well plates at 5×10^2 to 5×10^4 cells/well and allowed to adhere overnight; the medium was then removed. A stock solution of test compound in DMSO was diluted in medium to generate a series of working solutions. Aliquots (100 μl) of the working solutions were then added to the appropriate test wells to expose cells to the final concentrations of compound in a total volume of 100 μl. Seven different concentrations were tested, with 2-5 wells per concentration. Camptothecin was used as a positive control; wells containing vehicle without compound were used as negative controls. Plates were kept for 72 h in a 37° C., 5% CO2 incubator. After incubation, viable cells were detected with the CELLTITER 96 AQueous Non-Radioactive Cell Proliferation Assay (Promega), and IC50 values were determined using GraphPad Prism 5 software.
(§3) Antiproliferation of several of the active compounds was tested against additional cell lines.
(§4) Compound 4 was tested for antiproliferation activity against several paclitaxel-resistant human cancer cell lines.

The subject of another series is OVCAR-4 cells. Nature of the series: antiproliferation assay, OVCAR-4. Type of series: cell-based. The settings on record: Homo sapiens. As for the experimental part:
as §2, §3

The test system of series [4] is NCI-H727 xenograft tumors. Nature of the series: tumor growth inhibition, NCI-H727 murine xenograft model. Type of series: in vivo, mice. The settings on record: IP 40 mg/kg, days 0,1,2,5,6,7,10,11,12. The method, then:
(§5) Tumor growth inhibition of compound 4 was measured in several murine xenograft models, and the results of individual experiments are listed in Table 14. Tumors were initiated by subcutaneous injection of either tumor cells from cell culture or tumor fragments from continuous in vivo passage. When tumors reached volumes between approximately 100 and 200 mm^3, the mice were divided into vehicle and treatment groups. Compound or vehicle was administered by IP injection in a volume of 5-10 mL/kg.
(§6) Changes in tumor weight (delta weights) for each treated (T) and control (C) group are calculated for each day tumors are measured by subtracting the median tumor weight on the first day of treatment (staging day) from the median tumor weight on the specified observation day. These values are used to calculate a percent T/C as follows: % T/C=(delta T/delta C)×100. The optimal T/C is the minimal value obtained after the first treatment.

For series [5], the system named is NCI-H522 (lung) xenograft tumors. Briefly: tumor growth inhibition, NCI-H522 murine xenograft model. The format is in vivo, mice. The settings on record: IP 40 mg/kg, days 0,1,2,5,6,7,10,11,12. The method, then:
as §5, §6

A further series concerns NCI/ADR-RES cells. Nature of the series: antiproliferation assay, NCI/ADR-RES. The settings on record: Homo sapiens. Type of series: cell-based. The method, then:
as §2, §3, §4

Another series has as its system K-562 cells. Briefly: antiproliferation assay, K-562. The settings on record: Homo sapiens, K562. The format is cell-based. As for the experimental part:
as §2, §3

The test system of series [6] is UO-31 cells. Briefly: antiproliferation assay, paclitaxel-resistant UO-31. Type of series: cell-based. The settings on record: Homo sapiens. The method, then:
as §2, §4

The test system of a further series is NCI-H187 cells. Briefly: antiproliferation assay, NCI-H187. Type of series: cell-based. The settings on record: Homo sapiens. The method, then: as §2, §3
The test system of another series is LOX-IMVI cells. Nature of the series: antiproliferation assay, LOX-IMVI. Type of series: cell-based. The settings on record: Homo sapiens.
The subject of series [7] is ACHN cells. Briefly: antiproliferation assay, paclitaxel-resistant ACHN. Type of series: cell-based. The settings on record: Homo sapiens. As for the experimental part: as §2, §4
Series [8] deals with OVCAR-3 cells. Nature of the series: antiproliferation assay, OVCAR-3. Type of series: cell-based. The settings on record: Homo sapiens. The method, then: as §2, §3
The subject of another series is EKVX cells. Nature of the series: antiproliferation assay, paclitaxel-resistant EKVX. Type of series: cell-based. The settings on record: Homo sapiens. As for the experimental part: as §2, §4

A word on the IC50: it is the concentration that gives 50% inhibition. A high value points to a need for much substance. On to `C=CC[C@H]1C[C@]2([C@@H](C)Cc3ccc(OC)c(F)c3)OCOC2=CC1=O` [Compound 37, (6S,7aR)-6-allyl-7a-((S)-1-(3-fluoro-4-methoxyphenyl)propan-2-yl)-7,7a-dihydrobenzo[d][1,3]dioxol-5(6H)-one], for which the IC50 in the series with ACHN cells [1] was found to be 32 nM; in the series with IGR-OV1 cells, 63 nM; with UO-31 cells [2] it was 65 nM; in the series on RXF-393 cells it was 95 nM; in the series on UACC-62 cells, 35 nM; in the series on MDA-MB-468 cells, 59 nM. Also, the IC50 was 60 nM in the series with SK-Mel-5 cells; 120 nM in the series with 786-0 cells; 102 nM in the series with HOP-62 cells; 187 nM in the series on DU-145 cells; 123 nM in the series on U251 cells; 40 nM in the series with OVCAR-3 cells [3]. Further, the IC50 was 43 nM in the series on UACC-257 cells; 47 nM in the series on SW-620 cells; greater than 10000 nM with HOP-92 cells; 110 nM with OVCAR-8 cells; 72 nM in the series on Hs578T cells; 129 nM in the series on HCC-2998 cells. The same molecule showed an IC50 in the series with MALME-3M cells of 39 nM.

On to `C=CC[C@H]1C[C@]2([C@H](C)Cc3cc(O)c(OC)cc3F)OCOC2=CC1=O` (relative stereo) [Compound 4, 6-allyl-7a-(1-(2-fluoro-5-hydroxy-4-methoxyphenyl)propan-2-yl)-7,7a-dihydrobenzo[d][1,3]dioxol-5(6H)-one], for which the IC50 with MES-SA/Dx5 cells (MES-SA/Dx5, MES-SA/Dx5) was 13 nM; in the series with MES-SA/Dx5 cells (MES-SA/Dx5, paclitaxel-resistant MES-SA/Dx5), 14 nM; in the series with OVCAR-4 cells it was 6.4 nM; in the series on NCI/ADR-RES cells it was 9.1 nM; in the series on NCI/ADR-RES cells (paclitaxel-resistant NCI/ADR-RES), 9 nM; with K-562 cells, 13 nM. In addition, the IC50 in the series with UO-31 cells [6] was 7 nM; in the series with NCI-H187 cells it was 21 nM; in the series with LOX-IMVI cells, 11 nM; in the series with ACHN cells [7] it was 15 nM; in the series with OVCAR-3 cells [8] it was 12 nM; in the series on EKVX cells it was 7 nM. Moreover, the “Maximum Mean Body Weight Loss” value in [4] worked out at 0%; in [5], 5%. Besides, the “Optimal T/C” value in series [4] is on record as 30%; in series [5], 13%.

For the origin of these results see US9562031B1, “Phenethyldihydrobenzodioxolones and methods of use” (Sequoia Sciences, Inc., priority 2015, dated 2017).
